Converted amounts (≈) assume the structure as drawn.
How the values were obtained:
[1] = target: recombinant NA-1 (H1N1 neuraminidase) (Influenza A virus, UniProt Q9IGQ6); test: biochemical
bacterial NA = details: cited from earlier work
mouse liver sialidase = details: cited from earlier work

Sequence of recombinant NA-1 (H1N1 neuraminidase) (Q9IGQ6 whole entry, looked up): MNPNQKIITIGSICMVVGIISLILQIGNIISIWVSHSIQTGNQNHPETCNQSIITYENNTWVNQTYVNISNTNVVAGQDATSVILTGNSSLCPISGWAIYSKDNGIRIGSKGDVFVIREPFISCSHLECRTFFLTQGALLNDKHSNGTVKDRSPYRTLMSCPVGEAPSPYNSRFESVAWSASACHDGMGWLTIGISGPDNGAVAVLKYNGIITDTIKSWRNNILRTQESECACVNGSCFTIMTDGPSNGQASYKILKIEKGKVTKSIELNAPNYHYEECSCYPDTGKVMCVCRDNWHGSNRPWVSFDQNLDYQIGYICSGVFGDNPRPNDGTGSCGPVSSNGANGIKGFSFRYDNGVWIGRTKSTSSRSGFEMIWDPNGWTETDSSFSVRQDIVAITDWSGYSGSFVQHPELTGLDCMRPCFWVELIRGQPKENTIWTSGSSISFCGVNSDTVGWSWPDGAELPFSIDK

SMILES | IC50 [1] [µM] | Inhibition of bacterial NA activity (bacterial NA) | IC10 on NA-1 activity [1] [mg/L] | Inhibition of mouse liver sialidase (mouse liver sialidase) | IC50 on NA-1 activity [1] [mg/L]
COc1cc2c(cc1OC)-c1cc3ccc4c(c3c[n+]1CC2)OCO4 [Epiberberine] | 99.9 |  |  |  | 
c1c2c(cc3c1OCO3)-c1cc3ccc4c(c3c[n+]1CC2)OCO4 [Coptisine] | 327 | inhibited |  |  | 
COc1c(O[C@@H]2O[C@H](C(=O)O)[C@@H](O)[C@H](O)[C@H]2O)cc(O)c2c(=O)cc(-c3ccccc3)oc12 [Wogonoside] | 405 |  | 19.6 ± 2.7 (≈ 42.6 µM) | inhibited | 
COC(=O)C1=CO[C@@H](O[C@@H]2O[C@H](CO)[C@@H](O)[C@H](O)[C@H]2O)[C@@H]2C(CO)=CC[C@H]12 [Geniposide] | 87.5 |  | 2.8 ± 0.2 (≈ 7.21 µM) |  | 
COc1c(O)cc2oc(-c3ccccc3)cc(=O)c2c1O [Oroxylin A] | 202 |  | 5.1 ± 1.4 (≈ 17.9 µM) |  | 
COc1ccc2cc3[n+](cc2c1OC)CCc1cc2c(cc1-3)OCO2 [Berberine] | 234 |  | 3.1 ± 0.8 |  | 
O=c1cc(-c2ccccc2)oc2cc(O)c(O)c(O)c12 [Baicalein] | 590 |  | 75.0 ± 29.1 (≈ 278 µM) |  | 
COc1cc2c(cc1O)CC[n+]1cc3c(OC)c(OC)ccc3cc1-2 [Jatrorrhizine] | 67.1 | inhibited | 1.9 ± 0.1 |  | 
CCC(CC)[C@H](NC(C)=O)[C@@H]1[C@H](O)[C@@H](C(=O)O)C[C@H]1N=C(N)N [Peramivir, reference compound] |  |  | 64.8 ± 8.4 (≈ 197 µM) |  | 478.8 ± 15.6 (≈ 1460 µM)
COc1cc2c(cc1OC)-c1cc3ccc(OC)c(OC)c3c[n+]1CC2 [Palmatine] | 50.5 | inhibited | 2.1 ± 0.1 |  | 
O=C(O)[C@H]1O[C@@H](Oc2cc3oc(-c4ccccc4)cc(=O)c3c(O)c2O)[C@H](O)[C@@H](O)[C@@H]1O [Baicalin] | 1650 |  |  |  | 
COc1c(O[C@@H]2O[C@H](C(=O)O)[C@@H](O)[C@H](O)[C@H]2O)cc2oc(-c3ccccc3)cc(=O)c2c1O [Oroxylin A 7-O-β-D-glucuronide] | 621 |  | 29.3 ± 7.8 (≈ 63.6 µM) |  | 
COc1c(O)cc(O)c2c(=O)cc(-c3ccccc3)oc12 [Wogonin] | 866 |  | 34.0 ± 5.1 (≈ 120 µM) | inhibited | 
COc1cc2c(cc1O)C[C@H]1c3cc(O)c(OC)cc3CC[N@@+]1(C)C2 [Phellodendrine] | 599 |  | 23.1 ± 2.7 |  | 

— paper PMC5686190 (Scientific Reports, 2017)
